Data reported in patent US7829305B2, “Method for monitoring the presence of biofilmforming microorganisms in paper industry” (Kemira Oyj, priority 2003, dated 2010).

system: biofilms formed in a paper machine; test: Inactivation of biofilms pre-grown in situ on sampler pegs; re-growth of new biofilm in the culturing step, safranin staining, visual evaluation; type: cell-based; conditions: biofilm grown 68 h in clear filtrate silo of neutral fine paper machine at 52° C.; treatment 1 to 50 ppm (active substance), stagnant 52° C., 2 h; culturing in R2-broth 250 rpm, 52° C., 17 h; safranin, evaluated visually
Source text: In this experiment one embodiment of the sampler device of the invention is used to illustrate the method of the invention for determining the effect of several anti-biofilm agents in inactivation of biofilms formed in a paper machine.
In this embodiment the sampler device comprises 12 stainless steel pegs fixed from one end on a stainless steel lid. The lid with the pegs is presented in FIG. 1 together with a treatment plate with 12 wells adapted to receive the pegs when the lid is placed on the plate. Suitably the lid was designed to be complementary with the commercially available 12-well polystyrene plates.
Three sampler lids are immersed in the clear filtrate silo of a neutral fine paper machine and allowed to hang immersed in said filtrate at the temperature of 52° C. of the process water, for 68 h. Then the samplers are removed, rinsed once with sterilized tap water, and each lid is placed on a 12-well treatment plate so that the pegs with biofilms formed in situ in the process on the surface thereof are immersed in the treatment solution within the wells, each peg in one well, while being supported at the one end by the lid.
Each well of a treatment plate contains 3.5 ml of sterilized tap water alone (reference samples) or 3.5 ml of sterilized tap water together with an anti-biofilm agent at a concentration of 1 to 50 ppm (active substance). The maximum volume of the wells is used so that almost the whole length of the pegs will be exposed to the anti-biofilm agents (the treatment solution). The tested anti-biofilm agents are BCDMH (Bromo-chloro-5,5-dimethyl hydantoine), a mixture of 5-chloro-2-methyl-4-isothiazolin-3-one and 2-methyl-4-isothiazolin-3-one, THPS (tetrakis(hydroxy-methyl)phosphomiumsulphate, DBNPA (2,2-dibromo-2-cyanoacetamide), glutar-aldehyde, MBT (methylene-bis(thiocyanate)), BNPD (bromo-2-nitropropan-1,3-diol), all of which are commercially available.
The anti-biofilm treatment step is carried out by incubating the plates with the lid thereon stagnant at 52° C. for 2 h. After the treatment step the lids are removed from the plate and rinsed three times with sterilized tap water and then placed on the 12-well culturing plates, which are similar to the treatment plates, but the wells contain 2.5 ml of sterile R2-broth (Difco). The culturing plates (plate+lid with the pegs immersed in the wells) are shaken at 250 rpm, at 52° C., for 17 h.
Finally, the pegs and growth media are removed from the wells, the wells are rinsed once with tap water and the microbes adhered on the walls of the wells are stained with safranin. The amount of biofilm produced by the microbes that survived alive through the treatment step with anti-biofilm agents is evaluated visually.

Compound	formation of new biofilm during the culturing step after treatment of the biofilm on the pegs
N#CC(Br)(Br)C(N)=O [DBNPA, 2,2-dibromo-2-cyanoacetamide]	no new biofilm is formed
O=[N+]([O-])C(Br)(CO)CO [BNPD, bromo-2-nitropropan-1,3-diol]	still capable to form new biofilm
N#CSCSC#N [MBT, methylene-bis(thiocyanate)]	still capable to form new biofilm
O=S(=O)([O-])[O-].OC[P+](CO)(CO)CO.OC[P+](CO)(CO)CO [THPS, tetrakis(hydroxy-methyl)phosphomiumsulphate]	no new biofilm is formed
CC1(C)C(=O)N(Br)C(=O)N1Cl [BCDMH, Bromo-chloro-5,5-dimethyl hydantoine]	no new biofilm is formed
O=CCCCC=O [glutaraldehyde]	no new biofilm is formed

same assay, conditions: treatment 2 h at 52° C.; culturing 17 h at 52° C. in R2-broth; concentration as active substance

Compound	lowest concentration of anti-biofilm agent achieving prevention of re-growth of new biofilm in the culturing step
N#CC(Br)(Br)C(N)=O [DBNPA, 2,2-dibromo-2-cyanoacetamide]	5 ppm
